Legend:
[1] = test system: HL60 cells; assay: On-chip ATP-dependent calcium uptake in docked HL60 cells (Fluo-3 fluorescence, concentration gradient); format: cell-based
Description: A practical embodiment of the present invention will now be described with reference to a typical experiment of the type for which the present invention is particularly suitable. In particular, in the following example an embodiment of the invention will be used to calculate the threshold ATP concentration that induces calcium uptake in HL60 mammalian cells. In this example HL60 cells (leukemia, promyelocytic) were suspended in 0.5 ml fresh RPMI 1640 with Pluronic F-127 (1% w/v final) and Fluo3-AM (2 micro molar final). After 30 minutes of incubation at room temperature, cells were re-suspended in (Hank's balanced salt solution) HBSS before loading into the apparatus. The example was carried out with an apparatus as shown in FIG. 1 and manufactured as described above. Before use, the etched quartz plate and a PDMS cover were touch-bonded and irradiated with UV light for 10 minutes in a bio-safety cabinet. After filling up micro-channels with buffer by capillary action, the apparatus was securely mounted on the stage of confocal microscope. Introduction of various fluids was implemented by using a 2-20 […] auto-pipette (HLT pipette-mate). An Axiovert 100M confocal microscope (Carl Zeiss) was used for data acquisition. Profiling data analysis mode was employed to present PMT response along a specific line in the apparatus. All fluorophores were excited by Argon (488 nm) laser. An emission filter 505-530 nm was used for Fluo-3 and AO while a 560 nm (long-pass) filter was used for ethidium bromide (EB) study. Scanning parameters were kept identical throughout all experiments for a particular fluorophore. Mammalian HL60 cells uptake extracellular calcium ions when the buffer ATP concentration is beyond a particular level. The minimum ATP concentration required to induce calcium uptake is referred as the threshold concentration. In this example of the use of an embodiment of the invention, cell docking and analyte concentration gradient were combined to determine the threshold concentration of ATP-dependent calcium uptake. The fluorescence images of the microchip under different conditions are shown in FIG. 6, with about 80 docked cells along the dam. In the “control” image and intensity measurement, the background cellular signal was due to the presence of intracellular calcium in HL60 cells. When an ATP solution (2 μM) was loaded into the CW/A vial, the cellular signal intensity was increased by 3-fold in the first zone (A to B) as compared to other zones (FIGS. 6 & 7, 2 μM images). The ATP threshold concentration can therefore be visualized as being between points B and C. After washing with buffer, the same batch of docked HL60 cells were exposed to higher ATP concentrations. Using the same LLP, the threshold concentration range shifted downstream with increasing analyte concentrations. As shown in FIGS. 6 & 7, with 5 μM ATP loaded into the apparatus, the cellular fluorescence intensity-in the first (A to B) and second (C to D) zones were enhanced. The threshold concentration range was shifted to the zone between points D & E. Repeating this process with 10 μM ATP, the Ca-related fluorescence in all cells in all zones were excited, (the signal intensity at the first zone was relatively weak due to desensitization from multiple ATP stimulations.). […] Using this equation, a relationship between liquid levels H and flow quantity Q can be derived: H=RQ+KQ2 (2) where parameters R and K depends on the geometrical profile of the channels. […]

[2] = test system: HL60 cells; assay: ATP threshold concentration by conventional fluorescence measurements (13 serial dilution experiments); format: cell-based; conditions: 13 individual serial dilution experiments, FIG. 8
Description: FIG. 8 is a plot of ATP threshold concentration obtained by conventional techniques for comparison purposes, In this example, first of all a viability test was carried out to confirm that after docking a sufficient number of living cells were safely docked, and then a concentration gradient was made visible by a fluorophore. When the presence of a viable number of docked cells, and the creation of a concentration gradient were confirmed, the threshold concentration for calcium uptake was calculated using the apparatus of the invention, and then the results compared with an experiment using conventional serial dilution techniques. The ATP concentration gradient along the dam structure was estimated according to the above computational model. Combining the results obtained in 2 μM and 5 μM ATP stimulations, the threshold concentration was estimated within a range of 0.16±0.02 μM. The threshold concentration was also determined using conventional fluorescence measurements. […] The threshold concentration range was determined to be 0.15-0.19 μM, which is in good agreement with the result obtained using the embodiment of the present invention.

With `Nc1ncnc2c1ncn2[C@@H]1O[C@H](COP(=O)(O)OP(=O)(O)OP(=O)(O)O)[C@@H](O)[C@H]1O` [ATP] the “increase of cellular signal intensity (fold)” value ([1]; 2 μM ATP loaded into CW/A vial, first zone (A to B) compared to other zones) was 3 fold, the cellular fluorescence intensity ([1]; 5 μM ATP loaded, first (A to B) and second (C to D) zones) was “enhanced” and the Ca-related fluorescence ([1]; 10 μM ATP loaded, all cells in all zones) was “excited”. For the same compound, the “threshold concentration of ATP-dependent calcium uptake” value ([1]; on-chip, HL60 cells, estimated from computational gradient model combining 2 μM and 5 μM ATP stimulations) was 0.16 ± 0.02 µM, the “threshold ATP concentration” value ([1]; on-chip, HL60 cells, indicated by experimental results before gradient estimation) was “below 2 μM” and the threshold concentration range [2] was 0.15 to 0.19 µM.

— US7560267B2, “Apparatus and methods for on-chip monitoring of cellular reactions” (City University of Hong Kong, priority 2002, dated 2009)
